{"source": "patent US6750249B1", "about": "“Controlled release oral preparations of esculetin and its derivatives” (priority 1998, dated 2004)", "origin": "cited, not measured here", "test_system": "glycosaminoglycan in the matrix", "conditions": "stimulation of interleukin-1 and the like; Japanese Patent Application Laid-open No. 312925/1994"}
{"smiles": "O=c1ccc2cc(O)c(O)cc2o1", "note": "[esculetin]", "values": [{"measurement": "depression of a decrease in the amount of glycosaminoglycan in the matrix", "result": "strongly depress a decrease in the amount of glycosaminoglycan"}]}
{"smiles": "Cc1cc(=O)oc2cc(O)c(O)cc12", "note": "[4-methyl esculetin]", "values": [{"measurement": "depression of a decrease in the amount of glycosaminoglycan in the matrix", "result": "strongly depress a decrease in the amount of glycosaminoglycan"}]}
